From patent US11548868B2, “Heterocyclic compounds, compositions comprising heterocyclic compound, and methods of use thereof” (JS INNOPHARM (SHANGHAI) LTD, priority 2017, dated 2023)

How the values were obtained:
[1] = target: T1, TDO2 in A172 cancer cells (Homo sapiens, UniProt P48775); test: TDO2 Cellular Assay (kynurenine production in A172 cancer cells); type: cell-based; conditions: L-Trp 1 mM, 24 hours incubation, kynurenine at 490 nm
T1 construct: endogenous in cells; host or cells: A172 cancer cells
T1 sequence (P48775 whole entry): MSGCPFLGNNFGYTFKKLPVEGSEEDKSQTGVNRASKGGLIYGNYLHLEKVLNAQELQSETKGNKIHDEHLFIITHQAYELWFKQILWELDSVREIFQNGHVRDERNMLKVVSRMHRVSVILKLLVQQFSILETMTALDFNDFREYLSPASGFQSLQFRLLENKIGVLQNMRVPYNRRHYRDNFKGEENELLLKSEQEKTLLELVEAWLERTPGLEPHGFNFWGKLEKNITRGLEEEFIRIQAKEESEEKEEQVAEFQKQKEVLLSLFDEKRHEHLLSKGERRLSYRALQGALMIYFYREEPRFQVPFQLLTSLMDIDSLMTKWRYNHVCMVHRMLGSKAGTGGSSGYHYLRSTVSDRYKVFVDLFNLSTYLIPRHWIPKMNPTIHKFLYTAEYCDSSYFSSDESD
Procedure, shortened: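 A172 cells seeded overnight, then given 1 mM L-Trp and test compound (0–25 μM, 0.25% DMSO) for 24 h at 37 °C. Supernatant treated with TCA at 50 °C to convert N-formylkynurenine, kynurenine detected with p-dimethylaminobenzaldehyde at 490 nm; IC50 by non-linear regression of inhibition versus DMSO control.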

[2] = target: T2, IDO1 in Hela cancer cells (Homo sapiens, UniProt P14902); test: IDO1 Cellular Assay (kynurenine production in IFN-γ stimulated Hela cancer cells); type: cell-based; conditions: human IFN-γ 50 ng/mL, 48 hours incubation, kynurenine at 490 nm
T2 construct: endogenous in cells; host or cells: Hela cancer cells stimulated with human IFN-γ
T2 sequence (P14902 whole entry): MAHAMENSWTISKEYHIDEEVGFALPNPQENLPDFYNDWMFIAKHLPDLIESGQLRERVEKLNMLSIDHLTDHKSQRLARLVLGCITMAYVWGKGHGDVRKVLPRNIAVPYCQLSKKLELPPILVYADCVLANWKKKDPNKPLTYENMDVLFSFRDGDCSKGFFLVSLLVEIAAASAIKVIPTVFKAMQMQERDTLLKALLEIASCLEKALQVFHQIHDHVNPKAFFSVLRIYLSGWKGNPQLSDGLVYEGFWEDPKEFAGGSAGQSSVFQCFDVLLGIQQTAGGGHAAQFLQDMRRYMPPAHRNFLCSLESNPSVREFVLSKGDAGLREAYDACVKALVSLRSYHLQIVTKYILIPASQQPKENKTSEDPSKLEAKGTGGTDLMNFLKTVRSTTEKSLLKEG
Procedure, shortened: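 HeLa cells stimulated with 50 ng/mL IFN-γ (final) and treated 48 h with compound (0–25 μM final, 0.25% DMSO). Supernatant kynurenine measured after TCA hydrolysis and p-dimethylaminobenzaldehyde reaction at 490 nm; inhibition vs DMSO control, IC50 by non-linear regression.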

IC50 [1] | IC50 [2] | SMILES
≤ 500 nM | ≤ 500 nM | O=C(N[C@H]1[C@@H]2C[C@@](O)(c3cc(Cl)cc4[nH]ncc34)C[C@@H]21)c1ccc(F)c(OC(F)(F)F)c1 [Example 180, N-((1R,3r,5S,6r)-3-(6-chloro-1H-indazol-4-yl)-3-hydroxybicyclo[3.1.0]hexan-6-yl)-4-fluoro-3-(trifluoromethoxy)benzamide]
1000 to 5000 nM | 1000 to 5000 nM | CS(=O)(=O)N1C[C@H]2CC(C(O)c3cc(Cl)cc4cn[nH]c34)C[C@H]2C1 (stereo partly drawn) [Example 113, (5-chloro-1H-indazol-7-yl)((3aR,6aS)-2-(methylsulfonyl)octahydrocyclopenta[c]pyrrol-5-yl)methanol]
1000 to 5000 nM | > 5000 nM | O=S(=O)(C1CC1)N1C[C@@H]2C[C@@](O)(c3cc(Cl)cc4cn[nH]c34)C[C@@H]2C1 [Example 100, (3aR,5r,6aS)-5-(5-chloro-1H-indazol-7-yl)-2-(cyclopropylsulfonyl)octahydrocyclopenta[c]pyrrol-5-ol]
≤ 500 nM | 1000 to 5000 nM | O=C(Cc1ccc(Cl)cc1)N1C[C@@H]2C[C@@](O)(c3cc(Cl)cc4[nH]ncc34)C[C@@H]2C1 [Example 175, 1-((3aR,5r,6aS)-5-(6-chloro-1H-indazol-4-yl)-5-hydroxyhexahydrocyclopenta[c]pyrrol-2(1H)-yl)-2-(4-chlorophenyl)ethanone]
≤ 500 nM | > 5000 nM | O=C(CC(F)(F)F)N[C@H]1[C@@H]2C[C@@](O)(c3cc(Cl)cc4[nH]ncc34)C[C@@H]21 [Example 138, N-((1R,3r,5S,6r)-3-(6-chloro-1H-indazol-4-yl)-3-hydroxybicyclo[3.1.0]hexan-6-yl)-3,3,3-trifluoropropanamide]
≤ 500 nM | > 5000 nM | CC(=O)N[C@H]1[C@@H]2C[C@@](O)(c3cc(Cl)cc4[nH]ncc34)C[C@@H]21 [Example 64, N-((1R,3r,5S,6r)-3-(6-chloro-1H-indazol-4-yl)-3-hydroxybicyclo[3.1.0]hexan-6-yl)acetamide]
≤ 500 nM | > 5000 nM | OC1(c2cc(Cl)cc3[nH]ncc23)CC1 [Example 11, 1-(6-chloro-1H-indazol-4-yl)cyclopropanol]
> 5000 nM | > 5000 nM | O=C(C1CCOCC1)N1C[C@@H]2C[C@@](O)(c3cc(Cl)cc4cn[nH]c34)C[C@@H]2C1 [Example 97, ((3aR,5r,6aS)-5-(5-chloro-1H-indazol-7-yl)-5-hydroxyhexahydrocyclopenta[c]pyrrol-2(1H)-yl)(tetrahydro-2H-pyran-4-yl)methanone]
≤ 500 nM | 500 to 1000 nM | O=C(N[C@H]1[C@@H]2C[C@@](O)(c3cc(Cl)cc4[nH]ncc34)C[C@@H]21)c1ccccc1 [Example 93, N-((1R,3r,5S,6r)-3-(6-chloro-1H-indazol-4-yl)-3-hydroxybicyclo[3.1.0]hexan-6-yl)benzamide]
> 5000 nM | > 5000 nM | O=S(=O)(c1ccccc1)N1C[C@@H]2C[C@@](O)(c3cc(Cl)cc4cn[nH]c34)C[C@@H]2C1 [Example 102, (3aR,5r,6aS)-5-(5-chloro-1H-indazol-7-yl)-2-(phenylsulfonyl)octahydrocyclopenta[c]pyrrol-5-ol]
≤ 500 nM | 1000 to 5000 nM | O[C@@H]1C[C@@H]2C[C@@](O)(c3cc(Cl)cc4[nH]ncc34)C[C@@H]2C1 [Example 32, (2r,3aR,5s,6aS)-2-(6-chloro-1H-indazol-4-yl)octahydropentalene-2,5-diol]
≤ 500 nM | ≤ 500 nM | O=C(N[C@H]1[C@@H]2C[C@@](O)(c3cc(Cl)cc4[nH]ncc34)C[C@@H]21)c1cccc(Cl)c1 [Example 124, 3-chloro-N-((1R,3r,5S,6r)-3-(6-chloro-1H-indazol-4-yl)-3-hydroxybicyclo[3.1.0]hexan-6-yl)benzamide]
≤ 500 nM | ≤ 500 nM | O=C(N[C@H]1[C@@H]2C[C@@](O)(c3cc(Cl)cc4[nH]ncc34)C[C@@H]21)c1cncc(Cl)c1 [Example 179, 5-chloro-N-((1R,3r,5S,6r)-3-(6-chloro-1H-indazol-4-yl)-3-hydroxybicyclo[3.1.0]hexan-6-yl)nicotinamide]
> 5000 nM | > 5000 nM | CC(=O)N1C[C@@H]2C[C@@](O)(c3cc(Cl)cc4cn[nH]c34)C[C@@H]2C1 [Example 8, 1-((3aR,5r,6aS)-5-(5-chloro-1H-indazol-7-yl)-5-hydroxyhexahydrocyclopenta[c]pyrrol-2(1H)-yl)ethanone]
≤ 500 nM | 1000 to 5000 nM | CC(=O)Nc1cccc(C(=O)N[C@H]2[C@@H]3C[C@@](O)(c4cc(Cl)cc5[nH]ncc45)C[C@@H]32)c1 [Example 151, 3-acetamido-N-((1R,3r,5S,6r)-3-(6-chloro-1H-indazol-4-yl)-3-hydroxybicyclo[3.1.0]hexan-6-yl)benzamide]
≤ 500 nM | 500 to 1000 nM | O=C(N[C@H]1[C@@H]2C[C@@](O)(c3cc(Cl)cc4[nH]ncc34)C[C@@H]21)c1ccnc2ccc(F)cc12 [Example 177, N-((1R,3r,5S,6r)-3-(6-chloro-1H-indazol-4-yl)-3-hydroxybicyclo[3.1.0]hexan-6-yl)-6-fluoroquinoline-4-carboxamide]
≤ 500 nM | > 5000 nM | NC(=O)N[C@H]1[C@@H]2C[C@@](O)(c3cc(Cl)cc4[nH]ncc34)C[C@@H]21 [Example 135, 1-((1R,3r,5S,6r)-3-(6-chloro-1H-indazol-4-yl)-3-hydroxybicyclo[3.1.0]hexan-6-yl)urea]
≤ 500 nM | 1000 to 5000 nM | N#CCC(=O)N[C@H]1[C@@H]2C[C@@](O)(c3cc(Cl)cc4[nH]ncc34)C[C@@H]21 [Example 137, N-((1R,3r,5S,6r)-3-(6-chloro-1H-indazol-4-yl)-3-hydroxybicyclo[3.1.0]hexan-6-yl)-2-cyanoacetamide]
≤ 500 nM | ≤ 500 nM | O=C(N[C@H]1[C@@H]2C[C@@](O)(c3cc(Cl)cc4[nH]ncc34)C[C@@H]21)c1ccc(F)c(F)c1 [Example 168, N-((1R,3r,5S,6r)-3-(6-chloro-1H-indazol-4-yl)-3-hydroxybicyclo[3.1.0]hexan-6-yl)-3,4-difluorobenzamide]
1000 to 5000 nM | 1000 to 5000 nM | O=C(Nc1cccc(Cl)c1)N[C@H]1[C@@H]2C[C@@](O)(c3cc(Cl)cc4[nH]ncc34)C[C@@H]21 [Example 122, 1-((1R,3r,5S,6r)-3-(6-chloro-1H-indazol-4-yl)-3-hydroxybicyclo[3.1.0]hexan-6-yl)-3-(3-chlorophenyl)urea]
≤ 500 nM | 500 to 1000 nM | O=C(N[C@H]1[C@@H]2C[C@@](O)(c3cc(Cl)cc4[nH]ncc34)C[C@@H]21)c1cncc(F)c1 [Example 173, N-((1R,3r,5S,6r)-3-(6-chloro-1H-indazol-4-yl)-3-hydroxybicyclo[3.1.0]hexan-6-yl)-5-fluoronicotinamide]
1000 to 5000 nM | > 5000 nM | O=S(=O)(N[C@H]1[C@@H]2C[C@@](O)(c3cc(Cl)cc4cn[nH]c34)C[C@@H]21)c1ccccc1 [Example 131, N-((1R,3r,5S,6r)-3-(5-chloro-1H-indazol-7-yl)-3-hydroxybicyclo[3.1.0]hexan-6-yl)benzenesulfonamide]
